From patent US20100099741A1, “Molecular Targets for Treatment of Learning and Memory Dysfunction” (priority 2008, published 2010)

Assays:
[1] = test system: CREB; experiment: Western blot of CREB activity (Ser133 phosphorylation) in primary neurons after neurotransmitter ligands, forskolin or H-89; assay type: cell-based, rat
Excerpt: With the primary neuronal cultures, we tested the ability of the constructed Boolean network to correctly predict the output activity, following an increase in the concentration of each input molecules. According to the logic equations of the CREB network (1), which provide the on/off state of CREB in response to the on/off states of input neurotransmitters (1), serotonin is the only input activates CREB. To verify this prediction experimentally, we treated primary neurons with equal micromolar concentrations (10 μM) of serotonin, glutamate, dopamine, GABA, and adenosine for 15 minutes and measured the activity of CREB by monitoring Ser133 phosphorylation (14). Receptors of these neurotransmitters are expressed in the primary cortical culture and this concentration is used in the literature to activate these receptors (17-22).
We also tried to verify the biological relevance of the stuck-at-1 and stuck-at-0 fault models used in Abdi et al (1). We tested the effect of serotonin on the activity of CREB when PKA, a highly vulnerable molecule in this network, is either activated (stuck-at-1) or inhibited (stuck-at-0), by forskolin or H-89, respectively. When PKA is stuck-at-1 or 0, the model predicts that serotonin should no longer activate CREB (1). To verify this experimentally, we treated primary neurons with serotonin in the presence or absence of either forskolin or H-89 (FIG. 1E). […] Thus, when the highly vulnerable molecule PKA is stuck-at-1, the network output is not correctly regulated by the input. […] Immunofluorescent analysis of CREB phosphorylation in primary neuron cultures exposed to vehicle, forskolin, or serotonin individually, or to serotonin following treatment with forskolin, was consistent with the results obtained by Western blotting for CREB phosphorylation. The cells were triple labeled with antibodies against Ser133 CREB (as a measure of CREB activity), Map-2 (as a marker that specifically labels neurons), and DRAQ-5 (as a nuclear marker that stains the nucleus of neuronal and normeuronal cells in primary culture). […] Consistent with the Western blot data (FIG. 1E), the effect of serotonin on the activity of CREB in neurons is attenuated, when serotonin was added after treatment with forskolin. […]
Protein extraction, and immunoblot analysis. […] Protein concentration was measured by Bio-Rad's protein assay and spectrometry at 595° A. Equal amounts of total protein were loaded on 4-12% gradient Bis-Tris gels, separated using the NuPAGE system (Invitrogen) and transferred onto nitrocellulose membrane. The membrane was probed with primary and secondary antibodies and signals were detected by chemiluminescence followed by autoradiography. […]

[2] = test system: CREB; experiment: Western blot of endogenous CREB Ser133 phosphorylation and total CREB protein in primary cortical neurons after P/Q-type calcium channel or Gαi agonist/antagonist treatment; assay type: cell-based, rat
Method: We altered the activity or abundance of endogenous L AND/OR P/Q-type calcium channels and Gαi in primary cortical neurons from rats and then assayed for the changes in endogenous CREB activity or abundance (see Methods). We used primary neuronal culture as a model system because it has the most similar CREB signaling network to the in vivo signaling networks of the mammalian brain.
Primary cortical culture. Primary cortical cultures were prepared from brains of embryonic day 17 to 18 Sprague-Dawley rats (Charles River). After trituration of cortical sections with a glass pipette, 2 to 4×10^5 neurons were plated on a coverslip (diameter: 12 mm) precoated with poly d-lysine (BD Biocoat). For biochemical analysis, primary cortical cells were plated in 35 mm dishes precoated with poly d-lysine (˜3×10^6 neurons/dish). Neurons were grown in NEUROBASAL Medium supplemented with 0.5 mM L-glutamine, B27 (2%), and N2 (1%) supplements.
Protein extraction, and immunoblot analysis. Primary neurons were cultured as described. Cells were homogenized in ice cold lysate buffer (0.25 M Tris, pH 7.5) containing protease inhibitors (Protease Inhibitor Cocktail tablets, Boehringer Mannheim) and phosphatase inhibitors (Phosphatase Inhibitor Cocktails I & II, Sigma) and lysed through three cycles of freezing (in liquid nitrogen) and thawing (in 37° C. water bath). Protein concentration was measured by Bio-Rad's protein assay and spectrometry at 595° A. Equal amounts of total protein were loaded on 4-12% gradient Bis-Tris gels, separated using the NuPAGE system (Invitrogen) and transferred onto nitrocellulose membrane. The membrane was probed with primary and secondary antibodies and signals were detected by chemiluminescence followed by autoradiography. The following antibodies were used: anti-CREB antibody (Cell Signaling, 1:1000), anti-phospho Ser^133 CREB antibody (Cell Signaling, 1:1000), anti P/Q type calcium channel antibody (Chemicon, 1:1000), and anti-actin antibody (Sigma, 1:1000).
Analysis of CREB regulation by P/Q-type calcium channels or Gαi. Primary cortical neurons were cultured as described. We followed the methods of Dolmetsch et al. (13) to analyze the effect of calcium channel blockers on CREB activity. We characterized the signaling properties of the endogenous P/Q-type calcium channels by monitoring the endogenous activity and total protein levels of CREB. In order to minimize the effect of other elements of calcium or G protein signaling following neuronal depolarization, all experiments were performed without depolarizing the neurons. Previous time-course studies have shown that short-term Ser^133 phosphorylation of CREB are transient events and prolonged Ser^133 phoaphorylation (more than 40 minutes) is required for transcriptional activity (13, 14, 15). Therefore, in these experiments we analyzed the endogenous Ser^133 phosphorylation and total CREB protein abundance following at least 2 hours treatment with agonist or antagonists of P/Q-type calcium channels and 2 hours treatment with agonist or antagonist of Gαi, ω-Agatoxin IVA (Calbiochem), pertussis toxin (Sigma), and Mas-7 (Calbiochem) were dissolved in the appropriate vehicle and added to the medium. Following the treatment, cortical neurons were harvested, lysed, and subjected to Western blot analysis as described.

[3] = test system: CREB; experiment: Immunofluorescent analysis of CREB phosphorylation (Ser133) in primary cortical culture; assay type: cell-based, rat
Excerpt: FIG. 6. Immunofluorescent analysis of primary cortical culture following treatment with vehicle, forskolin, serotonin, or serotonin and forskolin. Red represents the phosphorylated CREB (Ser^133) as a measure of CREB activity. Green represents the Map-2 staining as a specific neuronal marker and blue represent DRAQ-5 nuclear staining of all the cells in the primary culture (both neuronal and glial cells). Images were captured with the same confocal parameters for the four different treatment conditions.
We also tried to verify the biological relevance of the stuck-at-1 and stuck-at-0 fault models used in Abdi et al (1). We tested the effect of serotonin on the activity of CREB when PKA, a highly vulnerable molecule in this network, is either activated (stuck-at-1) or inhibited (stuck-at-0), by forskolin or H-89, respectively. When PKA is stuck-at-1 or 0, the model predicts that serotonin should no longer activate CREB (1). To verify this experimentally, we treated primary neurons with serotonin in the presence or absence of either forskolin or H-89 (FIG. 1E). […] Thus, when the highly vulnerable molecule PKA is stuck-at-1, the network output is not correctly regulated by the input. […]

[4] = test system: CREB; conditions: previous studies (reference 18); cited from earlier work
[5] = long-term (12 h) treatment, approximately 1 μM, vs vehicle
[6] = short-term (2.5 h) treatment, approximately 1 μM, vs vehicle
[7] = 2 hours treatment, pertussis toxin approximately 0.1 or 0.2 μg/ml, MAS-7 approximately 5 or 10 μM

O=S(=O)(NCCNC/C=C/c1ccc(Br)cc1)c1cccc2cnccc12 [H-89]
serotonin-stimulated activity of CREB under inhibition of PKA ([1]; about 10 μM H-89 30 minutes followed by 15 minutes about 10 μM serotonin): prevents serotonin from stimulating the activity of CREB

ω-Agatoxin IVA
abundance of CREB [2, 5]: decreased | phosphorylation of CREB at Ser133 [2, 5]: decreased | phosphorylation of CREB at Ser133 [2, 6]: increased | total abundance of CREB [2, 6]: without changing

NCCc1c[nH]c2ccc(O)cc12 [serotonin]
activity of CREB (Ser133 phosphorylation) ([1]; 10 μM for 15 minutes, primary neurons, vs vehicle): most robust effect | activity of CREB on serotonin treatment following activation of PKA by forskolin, compared to serotonin only ([1]; about 10 μM forskolin 30 minutes followed by 15 minutes about 10 μM serotonin): did not affect the activity of CREB | activity of CREB, individual treatments ([1]; about 10 μM, forskolin 30 minutes, serotonin 15 minutes, primary neurons): activate CREB | activity of CREB (phospho-Ser133 staining) in neuronal and non-neuronal cells ([3]; primary cortical culture, triple labeled with phospho-CREB, Map-2, DRAQ-5): only increased the activity of CREB in the neurons | effect of serotonin on the activity of CREB in neurons when added after forskolin ([3]; serotonin added after treatment with forskolin): attenuated | Ser133 CREB phosphorylation [4]: can induce

pertussis toxin
Ser133 phosphorylation of CREB [2, 7]: increase | abundance of CREB [2, 7]: increase
